Source: patent US7919255B2, “Assessment of skeletal growth using measurements of NT-CNP peptides” (priority 2003, dated 2011)

Experiments:
adult sheep = assay: Dexamethasone 0.25 mg/kg/day for 4 days in adult sheep; assay type: in vivo; conditions: after 48 hours of dexamethasone treatment
Procedure: (§1) FIG. 11A and FIG. 11B: Effect of 4 days of treatment with a glucocorticoid (dexamethasone, 0.25 mg/kg/day) in 12 week old lambs (filled circles, n=8) and in adult sheep (open circles, n=8) on (A) plasma NT-CNP and (B) change (?) in plasma alkaline phosphatase activity (ALP). Values are mean±SEM;
(§2) This differential response to dexamethasone was highly significant for both NT-CNP (F=5.4, p<0.001) and ALP (F=4.1, p=0.002). After 48 hours of dexamethasone treatment, plasma NT-CNP in lambs fell 30.8±3.5% from basal compared with 17.7±2.7% in adult sheep. Both the onset and offset of dexamethasone's action on NT-CNP preceded that of ALP (FIG. 11A and FIG. 11B).

12 week old lambs = assay: Dexamethasone 0.25 mg/kg/day for 4 days in 12 week old lambs; assay type: in vivo, sheep; conditions: after 48 hours of dexamethasone treatment
Procedure: as §1, §2

4 week old lambs = assay: Dexamethasone 0.25 mg/kg/day for 15 days in 4 week old lambs versus saline; assay type: in vivo, sheep
Procedure: FIG. 12A, FIG. 12B, FIG. 12C and FIG. 12D: Effect of a glucocorticoid (dexamethasone, 0.25 mg/kg/day) (filled circles, n=8) or saline control treatment (open circles, n=8), administered to 4 week old lambs for 15 days, on (FIG. 12A) plasma NT-CNP (FIG. 12B) plasma alkaline phosphatase activity (FIG. 12C) metacarpal length and (FIG. 12D) body weight. Values are mean±SEM; and
In order to study a possible linkage between changes in NT-CNP and growth velocity, a more prolonged study was undertaken in younger growing lambs.
We undertook a study in normal lambs. Lambs (n=16, aged 4 weeks) either received dexamethasone (0.25 mg/kg/day) or saline injections (controls) for 15 days. The predictive effect of a plasma NT-CNP concentration (drawn 24 hours after starting treatment) on subsequent growth inhibition (defined as growth velocity less than 5% of that of control lambs) was examined by ROC curve analysis (FIG. 13). […] The area under the curve (AUC) was 0.85.

J39 antisera = assay: Cross reactivities of the NT-CNP radioimmunoassay using the J39 antisera; assay type: binding, rabbit; conditions: NT-CNP RIA
Procedure: Antiserum production: Human NT-CNP(1-15) (5 mg) was conjugated to 4.2 mg of bovine serum albumin (BSA, fraction V, GibcoBRL, Life Technologies) using 62.2 mg of 1-ethyl-3(3-dimethyaminopropyl) carbodiimide at pH 7 for 18 hours and dialysed against phosphate buffered saline. Rabbits were given a primary subcutaneous injection of the antigen after emulsification with an equal volume of complete Freunds adjuvant (Sigma Chemical Co., St Lois. Mo., USA). Subsequent injections using incomplete Freunds reagent were given at monthly intervals. Rabbits were bled two weeks after each injection and tested for binding of radioactive tracer and its displacement by NT-CNP (1-15) standards.
RIA for N-terminal CNP: NT-CNP(1-15)-Tyr^16 (5 μg) was iodinated using 0.5 mCi Na^125I in the presence of 10 μg chloramine-T in 5 μl 0.5M phosphate buffer, pH 7.5 for 30 seconds, followed by the addition of 50 μg cysteine, 25 μg BSA and 20 μg KI in 100 μl buffer. The resulting mixture was loaded onto a 10 m RP300 Brownlee column and eluted with a gradient from 0-60% acetonitrile in 49 mM KH2PO4 pH 2.9 over 30 min at 1 ml/min, collecting 0.5 ml fractions. The fraction containing the major peak of radioactive NT-CNP(1-15)-[^125I]Tyr^16 was used in the RIA. Peptide standards were made from synthetic human NT-CNP(1-19) taking into account the purity data supplied. […]

[1] = target: antiserum J39, raised in rabbits to a synthetic peptide corresponding to the first 15 amino acids of human ProCNP(1-103), conjugated to BSA; assay: competitive radioimmunoassay: NT-CNP(1-19) standards displace NT-CNP(1-15)-[125I]Tyr16 from antiserum J39
[2] = target: antiserum J39, raised in rabbits to a synthetic peptide corresponding to the first 15 amino acids of human ProCNP(1-103), conjugated to BSA; assay: competitive radioimmunoassay with J39 antiserum
[3] = 4 week old lambs, 0.25 mg/kg/day for 15 days

Which results are given for C[C@@H]1C[C@H]2[C@@H]3CCC4=CC(=O)C=C[C@]4(C)[C@@]3(F)[C@@H](O)C[C@]2(C)[C@@]1(O)C(=O)CO [dexamethasone]?
fall in plasma NT-CNP from basal (adult sheep): 17.7±2.7%; fall in plasma NT-CNP from basal (12 week old lambs): 30.8±3.5%; effect on metacarpal elongation (4 week old lambs; [3]): pronounced decrease; time for NT-CNP to return to control levels after cessation of treatment (4 week old lambs; [3]): ≤ 24 h; time to fall in NT-CNP after starting treatment (4 week old lambs; [3]): ≤ 24 h; effect on body weight (4 week old lambs; 4 week old lambs, compared with saline treated lambs): small but significant effect; body weight difference between treatment groups at cessation of treatment (4 week old lambs; day 15, dexamethasone versus saline): not significantly different

With “hBNP32: peptide tested for cross reactivity in the NT-CNP radioimmunoassay” as the molecule, how does the Cross reactivity (J39 antisera) read?
Its Cross reactivity is less than 0.05%.

“hproBNP(1-21): peptide tested for cross reactivity in the NT-CNP radioimmunoassay” was tested. Which Cross reactivity (J39 antisera) did it give?
Its Cross reactivity is less than 0.4%.

With KPGAPPKVPRTPPAEELAE [human NT-CNP(1-19)] as the molecule, how does the ED50 [1] read?
Its ED50 is 0.11 nM.

For GLSKGCFGLKLDRIGSMSGLGC [hCNP-22], which cross reactivity [2] is on record?
Its cross reactivity is less than 0.03%.

B1: hCNP-53 (peptide)
peptide: DLRVDTKSRAAWARLLQEHPNARKYKGANKKGLSKGCFGLKLDRIGSMSGLGC
For B1, which cross reactivity [2] is on record?
Its cross reactivity is less than 0.07%.
